Common to all, as to assay: NCI-60 cell line screen, 48 h
In assay [1] the test system is OVCAR-3 ovarian.
Assay [2] has as its system SK-OV-3 ovarian.
Assay [3] concerns IGROV1 ovarian.
Assay [4] relates to SF-539 CNS.
Assay [5] deals with MDA-MB-435.
The test system of assay [6] is PC-3 prostate.
Assay [7] concerns HOP-62 NSCLC.
For assay [8], the system named is SR leukemia.
The test system of assay [9] is COLO 205 colon.
Assay [10] has as its system HL-60(TB) leukemia.

These results are taken from PubChem BioAssay (NCI).

Structures are written as SMILES. Several values for one entry are separate records, joined by “and”; a condition that tells them apart may be missing. Equal values may be shown once.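 Exposure lasted 48 hours, with cells grown in 96-well plates and compounds tested at five concentrations. GI50 marks 50% less growth. TGI: concentration producing complete growth inhibition.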 Bounds are passed on as bounds.

Regarding `O=C1OCC2=C1C(c1ccc(Cl)c(Cl)c1)c1cc3c(cc1N2CCO)OCCO3` (stereo not given), the GI50 in assay [1] was 0.127 µM; in assay [2] it was 0.215 µM; in assay [3], 0.542 µM; in [4], 0.177 µM; in assay [5], 0.102 µM; in assay [6], 0.189 µM. The GI50 in [7] was 0.295 µM; in [8] it was 0.187 µM; in assay [9], 0.21 µM; in assay [10] it was 0.135 µM. Further, the TGI in assay [1] was 0.351 µM; in assay [2], 2.32 µM; in assay [3] it was greater than 33 µM; in assay [4], 1.74 µM; in assay [5], 0.468 µM; in assay [6] it was 8.66 µM. Besides, the TGI in assay [7] was found to be 15.1 µM; in assay [8], 21.7 µM; in [9], 1.14 µM; in assay [10], 0.587 µM.

`O=C1c2ccccc2-c2cc([N+](=O)[O-])c([N+](=O)[O-])cc21`: the TGI came out at 1.01 µM in [1]; 6.51 µM in [2]; 2.84 µM in [3]; 1.03 µM in [4]; 3.27 µM in assay [5]; 2.93 µM in assay [6]. In addition, the TGI came out at 3.13 µM in assay [7], 0.459 µM in [8], 4.71 µM in assay [9] and 3.97 µM in assay [10].

Regarding `O=C(/C=C/c1cc2ccccc2[nH]c1=O)/C=C/c1cc2ccccc2[nH]c1=O`, the GI50 in assay [1] was 12.1 µM; in assay [2], 31.4 µM; in assay [3] it was greater than 19.7 µM; in assay [4], 9.13 µM; in assay [6], greater than 21.5 µM; in assay [7], 14.5 µM. Further, the GI50 in [8] was 6.42 µM; in [9], 10.2 µM; in [10], greater than 32.3 µM. The TGI in assay [1] was greater than 63.5 µM; in assay [2] it was greater than 100 µM; in [3], greater than 49.3 µM; in [4], greater than 75.9 µM; in assay [5], greater than 20 µM; in assay [6], greater than 81.1 µM. Besides, the TGI in [7] is greater than 76.9 µM; in assay [8], greater than 100 µM; in [9], greater than 59.7 µM; in assay [10], greater than 100 µM.

Regarding `Nc1nc(OCc2ccccc2)c2[nH]cnc2n1`, the GI50 in assay [1] was 33.9 µM; in [2] it was 21.8 µM and 20.8 µM; in [3], 25.3 µM and 9.01 µM; in [4] it was 30 µM and 31.4 µM; in [5], 41.1 µM and 26.9 µM; in assay [6] it was 53.7 µM. The GI50 in [7] is 42 µM and 23.5 µM; in [8], 36.6 µM; in [9], 57 µM and 36.1 µM; in [10], 39.8 µM and 17.7 µM. In addition, the TGI in assay [1] is 400 µM and 284 µM; in assay [2], 71.9 µM and 160 µM and 60 µM; in [3] it was 93.3 µM and 271 µM and 34.4 µM; in [4], 266 µM and 154 µM; in assay [5] it was 143 µM; in assay [6], 628 µM. In addition, the TGI in assay [7] is 209 µM and 70.9 µM; in assay [9], 288 µM and 151 µM; in [10], 181 µM and 57.8 µM.

`COc1cc2nc(N3CCCC3)nc(NCCc3ccccc3)c2cc1OC`: the GI50 in assay [1] was 1.96 µM; in [2], 1.93 µM; in assay [3], 1.51 µM; in assay [4] it was 1.78 µM; in assay [5] it was 1.74 µM; in assay [6], 1.68 µM. Moreover, the GI50 was 1.93 µM in assay [7], 0.653 µM in [8] and 1.85 µM in assay [10]. The TGI was determined as 3.68 µM in [1]; 3.56 µM in assay [2]; 2.95 µM in assay [3]; 3.21 µM in assay [4]; 3.25 µM in assay [5]; 3.91 µM in assay [6]. Moreover, the figures for the TGI in [7], in [8] and in [10] were 3.86 µM, 5.74 µM and 4.25 µM, respectively.

For the compound `Fc1ccc(/C=N/n2c(-c3ccc(F)c(Cl)c3)nn(CNc3ccccc3C(F)(F)F)c2=S)cc1`, the GI50 in [1] was 53.9 µM; in assay [2] it was greater than 100 µM; in [3], 83.6 µM; in [4] it was 93.2 µM; in assay [5], 43.1 µM; in [6] it was 37.4 µM. The GI50 in assay [7] is greater than 100 µM; in [8], 31.2 µM; in [9] it was 47.7 µM; in assay [10] it was 39.4 µM. Also, the TGI in assay [1], in assay [2], in assay [3], in [4], in assay [5] and in assay [6] was greater than 100 µM throughout. Moreover, the TGI in [7], in assay [8], in assay [9] and in assay [10] was greater than 100 µM throughout.

For `CC(=O)OC12C=C(C)C(C(C)C1)C1C(=O)N(CCN3CCOCC3)C(=O)C12` (stereo not given), the GI50 in [2], in assay [3], in assay [4], in [5], in [6] and in assay [7] was greater than 100 µM in each case. In addition, the GI50 in assay [9] and in assay [10] was greater than 100 µM throughout. For the same compound, the TGI in assay [2], in assay [3], in [4], in assay [5], in assay [6] and in [7] was greater than 100 µM each time. Further, the TGI in assay [9] and in assay [10] was greater than 100 µM each time.

With `CN(C)CCCn1c(=O)c2ccccc2c2ccccc21`, the GI50 in assay [1] is 20.4 µM; in [2], 26.6 µM; in assay [4], 11.8 µM; in assay [5] it was 11.8 µM; in [6], 18.2 µM; in assay [7] it was 20.5 µM. The GI50 in assay [8] is 12.8 µM; in [9] it was 5.58 µM; in [10], 21.8 µM. Besides, the TGI in assay [1] is 52.4 µM; in assay [2], greater than 100 µM; in assay [4], 28.8 µM; in assay [5] it was 26.6 µM; in assay [6], 54.2 µM; in [7] it was greater than 100 µM. Also, the TGI in [8] is greater than 100 µM; in assay [9], 20.6 µM; in assay [10] it was 69.5 µM.
